Where two headings read alike, the source gives them in different places.
Assays:
Assay type in all cases: cell-based
[1] = target: T1, hASCT1 (Homo sapiens, UniProt P43007); assay: Electrophysiology (whole-cell current recording) of transfected HEK293 cells, hASCT1
T1 construct: expressed in transfected cells; host or cells: HEK293 (ATCC CRL-11268), transient transfection
T1 sequence (P43007 1-532): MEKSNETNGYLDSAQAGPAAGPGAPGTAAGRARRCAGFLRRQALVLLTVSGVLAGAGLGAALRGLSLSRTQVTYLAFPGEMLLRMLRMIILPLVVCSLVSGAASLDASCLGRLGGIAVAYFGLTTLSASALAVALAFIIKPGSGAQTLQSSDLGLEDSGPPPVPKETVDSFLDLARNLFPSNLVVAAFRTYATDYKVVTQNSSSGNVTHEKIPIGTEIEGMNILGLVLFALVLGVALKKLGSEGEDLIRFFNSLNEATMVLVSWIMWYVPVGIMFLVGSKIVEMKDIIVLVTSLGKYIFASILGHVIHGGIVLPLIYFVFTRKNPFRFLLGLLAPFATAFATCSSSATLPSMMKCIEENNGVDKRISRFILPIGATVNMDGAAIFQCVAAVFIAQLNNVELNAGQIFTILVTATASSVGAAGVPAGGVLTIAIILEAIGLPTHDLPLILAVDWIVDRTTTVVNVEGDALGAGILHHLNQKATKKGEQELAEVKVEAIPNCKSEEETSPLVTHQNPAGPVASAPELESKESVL
Experimental: (§1) Human embryonic kidney 293 (HEK293, ATCC CRL-11268) cells were cultured in DMEM media supplemented with 10% (v v) fetal bovine serum (FBS), 2 mM glutamine, 1% penicillin streptomycin solution, 1 mM sodium pyruvate and non-essential amino acids. Cells were maintained at 37° C. in a fully humidified atmosphere containing 5% CO2. rASCT2, hASCT2, hASCT1, EAAT1, EAAT2, EAAC1, EAAT5 and YFP complementary DNAs were each used to transiently transfect HEK293 using POLYPLUS Jet-prime transfection reagent. Cells were analyzed using electrophysiological techniques 24-40 hours after transfection.
(§2) Stock solutions of inhibitor was prepared in dimethyl sulfoxide (DMSO) up to 100 mM. Dilutions to working concentrations were made using external buffer. […] For rASCT2, hASCT2 and hASCT1, external buffer contained 140 mM NaCl, 2 mM MgCl2, 2 mM CaCl2), and 10 mM HEPES, pH 7.40 while internal pipette solution comprised of 130 mM NaSCN, 2 mM MgCl2, 10 mM EGTA, 10 mM HEPES and 10 mM alanine, pH 7.40. For specificity experiments with EAAT1, EAAT2, EAAC1 and EAAT5, internal solution contained 10 mM glutamate instead of alanine. Compounds were applied to HEK293 cells expressing DNA of interest suspended from a current recording electrode in whole cell configuration through a rapid solution exchange device. Cells are immersed in external buffer bath used to dissolve the inhibitors. The open pipette resistance was between 3 and 6 MΩ. Series resistance was not compensated in these experiments due to relatively small currents. Currents traces were recorded using an Adams and List EPC7 amplifier and digitized using a Molecular Devices Digidata A/D converter.
(§3) Linear and nonlinear curve fitting of the experimental data were analyzed using MicroCal Origin software. Nonlinear dose-response relationships were fitted with a Michaelis-Menten-like equation to obtain apparent Ki values in the absence of substrate (see TABLE 2 for Ki values). The figures show representative current traces and dose-response curves for hACST2 and rASCT2, used to obtain Ki values in TABLE 2 for compound SN 40. At least four experiments were performed with at least three different cells. Error bars in all graphs, e.g., in FIG. 1B and FIG. 1C and tables (Ki values) represent mean±SD.

[2] = target: T2, rASCT2 (Rattus norvegicus, UniProt D3ZJ25); assay: Electrophysiology (whole-cell current recording) of transfected HEK293 cells, rASCT2
T2 construct: expressed in transfected cells; host or cells: HEK293 (ATCC CRL-11268), transient transfection
T2 sequence (D3ZJ25 1-555): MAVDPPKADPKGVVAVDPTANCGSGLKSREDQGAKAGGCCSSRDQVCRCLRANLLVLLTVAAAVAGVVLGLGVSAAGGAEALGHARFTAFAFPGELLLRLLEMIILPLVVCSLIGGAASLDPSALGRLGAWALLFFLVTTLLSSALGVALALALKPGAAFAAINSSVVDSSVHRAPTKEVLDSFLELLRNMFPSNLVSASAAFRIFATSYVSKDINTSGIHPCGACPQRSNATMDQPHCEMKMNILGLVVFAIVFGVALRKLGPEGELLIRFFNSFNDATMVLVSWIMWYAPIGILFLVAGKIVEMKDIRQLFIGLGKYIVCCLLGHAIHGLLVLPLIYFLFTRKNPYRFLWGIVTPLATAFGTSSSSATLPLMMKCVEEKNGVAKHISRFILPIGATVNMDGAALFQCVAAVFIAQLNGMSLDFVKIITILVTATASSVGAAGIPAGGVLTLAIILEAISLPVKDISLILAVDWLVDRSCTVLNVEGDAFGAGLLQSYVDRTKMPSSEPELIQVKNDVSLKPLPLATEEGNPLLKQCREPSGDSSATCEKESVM
Experimental: as §1, §2, §3

[3] = target: T3, hASCT2 (Homo sapiens, UniProt Q15758); assay: Electrophysiology (whole-cell current recording) of transfected HEK293 cells, hASCT2
T3 construct: expressed in transfected cells; host or cells: HEK293 (ATCC CRL-11268), transient transfection
T3 sequence (Q15758 1-541): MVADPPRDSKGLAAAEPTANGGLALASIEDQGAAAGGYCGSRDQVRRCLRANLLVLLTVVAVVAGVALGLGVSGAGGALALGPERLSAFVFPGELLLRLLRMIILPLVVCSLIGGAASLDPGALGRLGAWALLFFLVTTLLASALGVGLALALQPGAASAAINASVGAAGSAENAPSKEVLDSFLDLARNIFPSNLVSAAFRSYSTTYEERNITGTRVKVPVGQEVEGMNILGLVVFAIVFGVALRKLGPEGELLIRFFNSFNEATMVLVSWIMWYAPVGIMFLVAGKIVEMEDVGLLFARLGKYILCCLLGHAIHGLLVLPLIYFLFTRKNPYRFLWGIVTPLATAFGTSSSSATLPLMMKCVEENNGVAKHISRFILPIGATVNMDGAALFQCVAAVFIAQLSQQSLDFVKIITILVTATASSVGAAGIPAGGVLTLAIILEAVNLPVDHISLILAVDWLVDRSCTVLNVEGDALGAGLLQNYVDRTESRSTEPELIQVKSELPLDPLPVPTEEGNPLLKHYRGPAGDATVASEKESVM
Experimental: as §1, §2, §3

[4] = target: T4, EAAT2 (Homo sapiens, UniProt P43004); assay: Electrophysiology specificity experiment in transfected HEK293 cells, EAAT2; settings: Table 3, dihydroxyproline derivatives; read-out: Ki All DNA: EAAT2
T4 construct: expressed in transfected cells; host or cells: HEK293 (ATCC CRL-11268), transient transfection
T4 sequence (P43004 whole entry, species assumed): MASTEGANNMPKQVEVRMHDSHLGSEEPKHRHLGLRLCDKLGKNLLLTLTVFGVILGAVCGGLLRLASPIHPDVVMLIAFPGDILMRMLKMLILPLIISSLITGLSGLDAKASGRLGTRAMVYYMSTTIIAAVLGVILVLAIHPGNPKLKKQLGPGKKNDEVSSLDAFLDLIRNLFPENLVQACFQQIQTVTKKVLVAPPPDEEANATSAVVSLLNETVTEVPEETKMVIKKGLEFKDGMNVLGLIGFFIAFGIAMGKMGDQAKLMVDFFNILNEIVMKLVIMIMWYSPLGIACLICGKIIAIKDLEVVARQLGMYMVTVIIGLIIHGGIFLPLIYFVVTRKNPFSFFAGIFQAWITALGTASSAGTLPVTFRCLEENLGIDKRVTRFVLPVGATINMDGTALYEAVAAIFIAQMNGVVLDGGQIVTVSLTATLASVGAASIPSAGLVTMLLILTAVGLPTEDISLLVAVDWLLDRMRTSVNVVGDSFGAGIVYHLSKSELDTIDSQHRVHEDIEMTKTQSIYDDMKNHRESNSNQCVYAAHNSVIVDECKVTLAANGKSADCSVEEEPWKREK
Experimental: as §1, §2, §3

[5] = target: T3, hASCT2; assay: Competition experiment with alanine, hASCT2; settings: 1 mM ala, first entry of the cell
[6] = target: T5, EAAT1 (Homo sapiens, UniProt P43003); assay: Electrophysiology specificity experiment in transfected HEK293 cells, EAAT1; settings: apparent Ki, HEK293, internal solution 10 mM glutamate, mean ± SD
T5 construct: expressed in transfected cells; host or cells: HEK293 (ATCC CRL-11268), transient transfection
T5 sequence (P43003 whole entry, species assumed): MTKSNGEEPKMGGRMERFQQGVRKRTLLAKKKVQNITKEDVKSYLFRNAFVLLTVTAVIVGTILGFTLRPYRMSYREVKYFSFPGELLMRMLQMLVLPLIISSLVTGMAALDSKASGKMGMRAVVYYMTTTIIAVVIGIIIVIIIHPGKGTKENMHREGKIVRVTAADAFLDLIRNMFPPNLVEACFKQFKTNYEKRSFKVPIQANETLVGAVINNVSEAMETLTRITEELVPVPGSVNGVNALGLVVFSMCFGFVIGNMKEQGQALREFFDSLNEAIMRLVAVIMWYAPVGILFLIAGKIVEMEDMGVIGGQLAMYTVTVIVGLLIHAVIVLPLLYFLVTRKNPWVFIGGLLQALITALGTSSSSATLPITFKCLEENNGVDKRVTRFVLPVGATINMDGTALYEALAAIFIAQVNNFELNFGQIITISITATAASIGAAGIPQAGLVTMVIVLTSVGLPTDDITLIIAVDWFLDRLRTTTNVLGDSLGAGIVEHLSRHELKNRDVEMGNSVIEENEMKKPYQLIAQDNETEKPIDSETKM
Experimental: as §1, §2, §3

[7] = apparent Ki in the absence of substrate, HEK293, mean ± SD, read-out: Ki hASCT1
[8] = apparent Ki in the absence of substrate, HEK293, mean ± SD, read-out: Ki rASCT2
[9] = apparent Ki in the absence of substrate, HEK293, mean ± SD, read-out: Ki hASCT2
[10] = Table 3, dihydroxyproline derivatives, read-out: Ki All DNA: hASCT1
[11] = Table 3, dihydroxyproline derivatives, read-out: Ki All DNA: rASCT2
[12] = Table 3, dihydroxyproline derivatives, read-out: Ki All DNA: hASCT2

Ki [1, 7] | Ki [2, 8] | Ki [3, 9] | Compound | also measured
172 ± 24 µM | 74.7 ± 18.3 µM | 103 ± 11.2 µM | O=C(Nc1cccc(CN[C@@H]2CN[C@H](C(=O)O)C2)c1)c1ccccc1 [SN 42] | –
– | 3.63 ± 1.1 µM | 10 ± 2.8 µM | N[C@H](C(=O)O)[C@@H](O)COC(=O)c1ccc(-c2ccccc2)cc1 [SN 34] | –
– | 7.46 ± 0.9 µM | 2.71 ± 0.5 µM | N[C@H](C(=O)O)[C@@H](CO)OC(=O)c1ccc(-c2ccccc2)cc1 [SN 37] | –
– | 22 ± 4.5 µM | – | N[C@@H](COC(=O)c1ccc(C(=O)c2ccccc2)cc1)C(=O)O [SN 26] | –
141 ± 17.6 µM | 151 ± 13.3 µM | 227 ± 34.2 µM | O=C(Nc1cccc(C(=O)N[C@@H]2CN[C@H](C(=O)O)C2)c1)c1ccccc1 [SN 47] | –
– | 10 ± 5.1 µM | – | O=C(O[C@@H]1CN[C@H](C(=O)O)C1)c1c2ccccc2cc2ccccc12 [SN 22] | –
– | – | – | O=C(OC[C@@]1(O)CN[C@H](C(=O)O)C1)c1ccc(C(=O)c2ccccc2)cc1 [SN61] | Ki [1, 10]: 18.6 µM; Ki [2, 11]: 88.6 µM; Ki [3, 12]: 108 µM
– | – | – | O=C(OC[C@@]1(O)CN[C@H](C(=O)O)C1)c1ccc(-c2cccc(F)c2)cc1F [SN60] | Ki [1, 10]: 8.15 µM; Ki [2, 11]: 4.87 µM; Ki [3, 12]: 4.61 µM
– | – | – | O=C(O[C@]1(CO)CN[C@H](C(=O)O)C1)c1ccc(-c2ccccc2)cc1 [SN73] | Ki [2, 11]: 8.03 µM; Ki [3, 12]: 4.25 µM; Ki [4]: 21.4 µM; Competition Expt % block (given as a decimal): hASCT2 [5]: full; Ki ([5]; read-out: Competition Expt (h/rASCT2 Ki): hASCT2 Ki): 22.3 µM
8.51 ± 3.9 µM | 3.37 ± 0.4 µM | 2.94 ± 0.9 µM | O=C(Nc1ccc(C(=O)O[C@@H]2CN[C@H](C(=O)O)C2)cc1)c1ccc(C(F)(F)F)cc1 [SN 15] | Ki [6]: 1.29 ± 0.2 µM
43 ± 13.4 µM | 18.8 ± 5 µM | 5.65 ± 1.3 µM | O=C(O[C@@H]1CN[C@H](C(=O)O)C1)c1ccc(C(O)c2ccccc2)cc1 (stereo partly shown) [SN 13] | Ki [6]: 39.5 ± 19 µM
– | – | – | O=C(O[C@]1(CO)CN[C@H](C(=O)O)C1)c1ccc(-c2ccc(F)cc2)cc1 [SN74] | Ki [1, 10]: 2.45 µM; Ki [2, 11]: 2.16 µM; Ki [3, 12]: 3.2 µM
7.9 ± 0.5 µM | 12.4 ± 1.8 µM | 17.3 ± 2.1 µM | O=C(Nc1ccc(C(=O)N[C@@H]2CN[C@H](C(=O)O)C2)cc1)c1ccccc1 [SN 48] | –
– | 1.68 ± 0.6 µM | 4.69 ± 1.1 µM | O=C(N[C@@H]1CN[C@H](C(=O)O)C1)c1ccc(-c2ccccc2)cc1 [SN 45] | –
– | 4.83 ± 1 µM | 0.84 ± 0.2 µM | N[C@H](C(=O)O)[C@H](O)COC(=O)c1ccc(-c2ccccc2)cc1 [SN 35] | –
– | 5.63 ± 1 µM | 5.56 ± 4.7 µM | O=C(O[C@@H]1CN[C@H](C(=O)O)C1)c1cccc(-c2ccccc2)c1 [SN 06] | –

From patent US20230416199A1, “INHIBITORS OF AMINO ACID TRANSPORT” (ICAHN SCHOOL OF MEDICINE AT MOUNT SINAI, priority 2020, published 2023)
